{
  "source": "ChEMBL document CHEMBL1152688",
  "about": "“Bioorganic synthesis of a recombinant HIV-1 fusion inhibitor, SC35EK, with an N-terminal pyroglutamate capping group” (Bioorg Med Chem, 2009)",
  "key": {"[1]": {"system": "Human immunodeficiency virus 1", "experiment": "Antiviral activity against HIV1 NL4-3 infected in human HeLa cells expressing CD4/CCR5-LTR-beta-gal genes assessed as blockade of viral infection by X-gal staining based MAGI method", "assay_type": "functional, organism-based", "settings": "Human immunodeficiency virus 1, NL4-3, HeLa"}, "Serum": {"system": "Serum", "experiment": "Stability in mouse serum assessed as compound degradation by LC-MS analysis", "assay_type": "ADME, cell-free"}},
  "note": "Non-standard residues stand in square brackets, D forms with d. Residues, ends and D or L forms follow the SMILES beside them. *: point of attachment. hSer(lactone) = O=C1OCC[C@@H]1N*; pGlu = O=C1CC[C@@H](C(=O)O)N1",
  "data": [
    {"compound": "CC[C@H](C)[C@H](NC(=O)[C@H](CC(C)C)NC(=O)[C@H](CCC(=O)O)NC(=O)[C@H](CCC(=O)O)NC(=O)[C@@H](NC(=O)[C@H](CCCCN)NC(=O)[C@H](CCCCN)NC(=O)[C@@H](NC(=O)[C@H](Cc1ccc(O)cc1)NC(=O)[C@H](CCC(=O)O)NC(=O)[C@H](CCC(=O)O)NC(=O)[C@@H](NC(=O)[C@H](CCCCN)NC(=O)[C@H](CCCCN)NC(=O)[C@H](CC(=O)O)NC(=O)[C@H](Cc1c[nH]c2ccccc12)NC(=O)[C@H](CCC(=O)O)NC(=O)[C@H](CCC(=O)O)NC(=O)[C@H](Cc1c[nH]c2ccccc12)NC(=O)[C@@H]1CCC(=O)N1)[C@@H](C)CC)[C@@H](C)O)[C@@H](C)CC)C(=O)N[C@@H](CCCCN)C(=O)N[C@@H](CCCCN)C(=O)N[C@@H](CO)C(=O)N[C@@H](CCC(=O)O)C(=O)N[C@@H](CCC(=O)O)C(=O)N[C@@H](CCC(N)=O)C(=O)N[C@@H](CCC(N)=O)C(=O)N[C@@H](CCCCN)C(=O)N[C@@H](CCCCN)C(=O)N[C@@H](CC(N)=O)C(=O)N[C@@H](CCC(=O)O)C(=O)N[C@@H](CCC(=O)O)C(=O)N[C@@H](CCC(=O)O)C(=O)N[C@@H](CC(C)C)C(=O)N[C@@H](CCCCN)C(=O)N[C@@H](CCCCN)C(=O)N[C@H]1CCOC1=O", "note": "([pGlu]WEEWDKKIEEYTKKIEELIKKSEEQQKKNEEELKK-{hSer(lactone)})", "values": [
      {"measurement": "EC50", "setting": "[1]", "result": 570, "unit": "pM"},
      {"measurement": "Stability", "setting": "Serum", "result": "Stable"}
    ]},
    {"compound": "Ac-WEEWDKKIEEYTKKIEELIKKSEEQQKKNEEELKK-NH2", "values": [
      {"measurement": "EC50", "setting": "[1]", "result": 500, "unit": "pM"},
      {"measurement": "Stability", "setting": "Serum", "result": "Stable"}
    ]},
    {"compound": "H-WEEWDKKIEEYTKKIEELIKKSEEQQKKNEEELKK-OH", "values": [
      {"measurement": "EC50", "setting": "[1]", "result": 2430, "unit": "pM"},
      {"measurement": "Stability", "setting": "Serum", "result": "Unstable"}
    ]}
  ]
}
